# Measured values as given in patent publication US8772286B2, “MK2 inhibitors” (Merck Sharp & Dohme B.V., priority 2009, dated 2014).
# Like-named read-outs stand apart in the source and are kept apart here.
# How the values were obtained:
# MK2 enzyme = molecular target: T1, MK2 enzyme (Homo sapiens, UniProt P49137); experiment: MK2 enzyme activity, IMAP fluorescence polarization assay; format: biochemical
# T1 construct: MK2 enzyme (active enzyme (peptide 46-end (Millipore))); purchased Millipore
# Text: In another assay the MK2 kinase activity can be determined by using an IMAP assay (Immobilized Metal Assay for Phosphochemicals—based coupled assay). IMAP is a homogeneous fluorescence polarization (FP) assay based on affinity capture of phosphorylated peptide substrates. IMAP uses fluorescein-labeled peptide substrates that, upon phosphorylation by a protein kinase, bind to so called IMAP nanoparticles, which are derivatized with trivalent metal complexes. […] In such an assay, MK2 phosphorylates a fluorescein-labeled peptide substrate (see example 14).
# MK2 enzyme activity is measured using the IMAP (immobilized metal ion affinity-based fluorescence polarization) assay as outlined below.
# The enzyme is diluted to 100 U/mL the day before use in KR buffer (10 mM Tris-HCl, 10 mM MgCl2, 0.01% Tween-20, 0.05% NaN3, 2 mM DTT, pH 7.2) and stored overnight at −20° C.
# The dilutions in DMSO are then diluted 50-fold in KR-buffer of which 5 μl is used in the assay, leading to a final compound concentration range in the assay from 10 μM to 0.316 nM.
# After 60 min incubation at room temperature in the dark the FP signal is read. Fluorescence at 535 nm is measured using parallel and perpendicular filters to determine differences in rotation due to binding of the phosphorylated substrate peptide to the beads. Values are calculated as percentage of the difference in readout (ΔmPi) of the controls with and without ATP. EC50 values are determined by curve fitting of the experimental results using Activity Base.
# [1] = Solubility determination of MK2 inhibitors (kinetic aqueous solubility, UPLC); format: physicochemical; conditions: aqueous buffer (system solution from pION inc.), 22 °C, pH 7.4, aqueous buffer, kinetic from dmso stock
# Procedure: The solubility can be determined using the Automated Kinetic Aqueous Solubility (AKASol) method, which is an HPLC-UV based method. The method is derived from the classical saturated shake-flask solubility method which has been adapted to the 96-well microtitre plate format, allowing the use of DMSO stock solutions. The solubility is determined by measuring the amount of compound in a saturated aqueous solution, quantified by an external calibration curve of the compound dissolved in DMSO. The solubility (mg/L) is measured at pH 7.4, at room temperature and the final concentration of DMSO in the sample solution is 1%.
# The samples were prepared from 10 mM DMSO stock solutions. For each compound under investigation, a volume (9 μL) of the DMSO stock solution is transferred from the DMSO stock solution into 891 μL of buffer solution (system solution from pION inc.) in a 96 deep well plate, which equates to approximately 1% DMSO, using the Packard Multiprobe II robot liquid handling system. The pH of the buffer is manually adjusted at pH 7.4 by adding NaOH. This procedure is done in duplicate for each sample. After shaking for 24 h on a vortex mixer (Heidolph, Titramax 101) at 450 rpm and at room temperature (21-23° C.), 300 uL of the incubated sample is transferred from the deep well plate to a filter plate (PVDF, 0.45 um) on a vacuum manifold. To the filtrate (150 uL) 1-propanol (50 uL) is added to suppress precipitation and this solution is then analysed by UPLC. The solubility is determined using the calibration line previously prepared.
# Preparation of the Standards and Built up of a Calibration Line
# The calibration line is built with different concentrations of the test compound (standards), prepared from the same 10 mM DMSO stock solution. A volume (7 uL) from the same DMSO stock solution was diluted with DMSO (273 uL) leading to a solution with concentration of 0.25 mM. From this solution, three different injection volumes (0.2, 1, 1.8 uL) were injected on UPLC. The respective peak areas are plotted against amount of compound to build up the calibration line. The calibration line is used to determine the amount of dissolved compound in each sample, selecting the injection that gave peak areas closest to the peak area range of the calibration standards.
# [2] = MK2 IMAP assay, 1 μM ATP, 30 min pre-incubation, 2 h room temperature, read-out: pEC50 value (converted)
# [3] = pH 7.4, room temperature, about 1% DMSO, 24 h shaking, read-out: solubility
# [4] = Table 2, comparison compound of Formula (XVI), spiro ring without amine, MK2 IMAP assay, read-out: pEC50, Formula (XVI) (converted)
# T1 sequence (P49137 46-400 limits assumed): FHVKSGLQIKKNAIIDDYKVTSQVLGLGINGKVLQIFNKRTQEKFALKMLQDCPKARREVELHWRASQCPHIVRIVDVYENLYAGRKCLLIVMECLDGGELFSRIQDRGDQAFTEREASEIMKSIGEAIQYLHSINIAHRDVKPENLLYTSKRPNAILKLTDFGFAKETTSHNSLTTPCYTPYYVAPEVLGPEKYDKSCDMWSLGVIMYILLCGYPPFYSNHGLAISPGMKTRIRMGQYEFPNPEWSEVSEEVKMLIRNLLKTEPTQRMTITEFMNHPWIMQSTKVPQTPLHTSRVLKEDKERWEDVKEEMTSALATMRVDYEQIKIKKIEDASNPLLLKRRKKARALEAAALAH
SMILES,EC50 (MK2 enzyme; [2]),"solubility at 24 h [1, 3]","solubility at 24 h ([1]; Table 1, comparison compound of Formula (XV) without spiro ring, pH 7.4, read-out: Solubility pH 7.4 (mg/L), Formula (XV))",EC50 (MK2 enzyme),EC50 (MK2 enzyme; [4])
"Nc1ncc(-c2nccc(-c3cc4c([nH]3)C3(CCNCC3)CNC4=O)n2)cn1 [1—2, 2′-(2′-amino-2,5′-bipyrimidin-4-yl)-5′,6′-dihydrospiro[piperidine-4,7′-pyrrolo[3,2-c]pyridin]-4′(1′H)-one]",≤ 3.16 nM,20 to 50 mg/L,–,–,–
"COc1cncc(-c2nccc(-c3cc4c([nH]3)C3(CCNCC3)CNC4=O)n2)c1 [1—3, 2′-(2-(5-methoxypyridin-3-yl)pyrimidin-4-yl)-5′,6′-dihydrospiro[piperidine-4,7′-pyrrolo[3,2-c]pyridin]-4′(1′H)-one]",3.16 to 31.6 nM,20 to 50 mg/L,–,–,–
"O=C1NCC2(CCNCC2)c2[nH]c(-c3ccnc(-c4ccccc4F)n3)cc21 [1—4, 2′-(2-(2-fluorophenyl)pyrimidin-4-yl)-5′,6′-dihydrospiro[piperidine-4,7′-pyrrolo[3,2-c]pyridin]-4′(1′H)-one]",3.16 to 31.6 nM,20 to 50 mg/L,–,–,–
"O=C1NCC2(CCNCC2)c2[nH]c(-c3ccnc(-c4cccc(F)c4)n3)cc21 [1—5, 2′-(2-(3-fluorophenyl)pyrimidin-4-yl)-5′,6′-dihydrospiro[piperidine-4,7′-pyrrolo[3,2-c]pyridin]-4′(1′H)-one]",3.16 to 31.6 nM,20 to 50 mg/L,–,–,–
"CC(=O)c1ccc(-c2nccc(-c3cc4c([nH]3)C3(CCNCC3)CNC4=O)n2)cc1 [1—6, 2′-(2-(4-acetylphenyl)pyrimidin-4-yl)-5′,6′-dihydrospiro[piperidine-4,7′-pyrrolo[3,2-c]pyridin]-4′(1′H)-one]",3.16 to 31.6 nM,20 to 50 mg/L,–,–,–
"O=C1NCC2(CCNCC2)c2[nH]c(-c3ccnc(-c4ccc5c(c4)OCO5)n3)cc21 [1—7, 2′-(2-(benzo[d][1,3]dioxol-5-yl)pyrimidin-4-yl)-5′,6′-dihydrospiro[piperidine-4,7′-pyrrolo[3,2-c]pyridin]-4′(1′H)-one]",3.16 to 31.6 nM,20 to 50 mg/L,–,–,–
"CC(=O)Nc1ccc(-c2nccc(-c3cc4c([nH]3)C3(CCNCC3)CNC4=O)n2)cn1 [1—8, N-(5-(4-(4′-oxo-1′,4′,5′,6′-tetrahydrospiro[piperidine-4,7′-pyrrolo[3,2-c]pyridine]-2′-yl)pyrimidin-2-yl)pyridin-2-yl)acetamide]",3.16 to 31.6 nM,≥ 50 mg/L,–,–,–
"CCC(=O)Nc1ccc(-c2nccc(-c3cc4c([nH]3)C3(CCNCC3)CNC4=O)n2)cn1 [1—9, N-(5-(4-(4′-oxo-1′,4′,5′,6′-tetrahydrospiro[piperidine-4,7′-pyrrolo[3,2-c]pyridine]-2′-yl)pyrimidin-2-yl)pyridin-2-yl)propionamide]",3.16 to 31.6 nM,≥ 50 mg/L,–,–,–
"O=C1NCC2(CCNCC2)c2[nH]c(-c3ccnc(-c4ccc(C(F)(F)F)c(Cl)c4)n3)cc21 [1—10, 2′-(2-(3-chloro-4-(trifluoromethyl)phenyl)pyrimidin-4-yl)-5′,6′-dihydrospiro[piperidine-4,7′-pyrrolo[3,2-c]pyridin]-4′(1′H)-one]",3.16 to 31.6 nM,≥ 50 mg/L,–,–,–
"O=C1NCC2(CCNCC2)c2[nH]c(-c3ccnc(-c4ccc5c(c4)OCCCO5)n3)cc21 [1—11, 2′-(2-(3,4-dihydro-2H-benzo[b][1,4]dioxepin-7-yl)pyrimidin-4-yl)-5′,6′-dihydrospiro[piperidine-4,7′-pyrrolo[3,2-c]pyridin]-4′(1′H)-one]",3.16 to 31.6 nM,≥ 50 mg/L,–,–,–
"O=C1NCC2(CCNCC2)c2[nH]c(-c3ccnc(-c4ccc(-c5ccccc5)cc4)n3)cc21 [1—12, 2′-(2-(biphenyl-4-yl)pyrimidin-4-yl)-5′,6′-dihydrospiro[piperidine-4,7′-pyrrolo[3,2-c]pyridin]-4′(1′H)-one]",3.16 to 31.6 nM,20 to 50 mg/L,–,–,–
"CC(C)c1cccc(-c2nccc(-c3cc4c([nH]3)C3(CCNCC3)CNC4=O)n2)c1 [1—14, 2′-(2-(3-isopropylphenyl)pyrimidin-4-yl)-5′,6′-dihydrospiro[piperidine-4,7′-pyrrolo[3,2-c]pyridin]-4′(1′H)-one]",31.6 to 316 nM,20 to 50 mg/L,–,–,–

# Second part, the compound after the results:
EC50 (MK2 enzyme; [2]),"solubility at 24 h [1, 3]","solubility at 24 h ([1]; Table 1, comparison compound of Formula (XV) without spiro ring, pH 7.4, read-out: Solubility pH 7.4 (mg/L), Formula (XV))",EC50 (MK2 enzyme),EC50 (MK2 enzyme; [4]),SMILES
3.16 to 31.6 nM,≥ 50 mg/L,–,–,–,"O=C1NCC2(CCNCC2)c2[nH]c(-c3ccnc(-c4ccc(Oc5ccccc5)cc4)n3)cc21 [1—15, 2′-(2-(4-phenoxyphenyl)pyrimidin-4-yl)-5′,6′-dihydrospiro[piperidine-4,7′-pyrrolo[3,2-c]pyridin]-4′(1′H)-one]"
3.16 to 31.6 nM,≥ 50 mg/L,–,–,–,"O=C1NCC2(CCNCC2)c2[nH]c(-c3ccnc(-c4cccc(OC(F)(F)F)c4)n3)cc21 [1—16, 2′-(2-(3-(trifluoromethoxy)phenyl)pyrimidin-4-yl)-5′,6′-dihydrospiro[piperidine-4,7′-pyrrolo[3,2-c]pyridin]-4′(1′H)-one]"
3.16 to 31.6 nM,≥ 50 mg/L,–,–,–,"O=C1NCC2(CCNCC2)c2[nH]c(-c3ccnc(-c4ccc(C(F)(F)F)cc4)n3)cc21 [1—17, 2′-(2-(4-(trifluoromethyl)phenyl)pyrimidin-4-yl)-5′,6′-dihydrospiro[piperidine-4,7′-pyrrolo[3,2-c]pyridin]-4′(1′H)-one]"
31.6 to 316 nM,20 to 50 mg/L,–,–,–,"O=C1NCC2(CCNCC2)c2[nH]c(-c3ccnc(-c4ccc(C5CCCCC5)cc4)n3)cc21 [1—18, 2′-(2-(4-cyclohexylphenyl)pyrimidin-4-yl)-5′,6′-dihydrospiro[piperidine-4,7′-pyrrolo[3,2-c]pyridin]-4′(1′H)-one]"
31.6 to 316 nM,≥ 50 mg/L,–,–,–,"Cc1cc(-c2nccc(-c3cc4c([nH]3)C3(CCNCC3)CNC4=O)n2)cc(C(C)(C)C)c1 [1—19, 2′-(2-(3-tert-butyl-5-methylphenyl)pyrimidin-4-yl)-5′,6′-dihydrospiro[piperidine-4,7′-pyrrolo[3,2-c]pyridin]-4′(1′H)-one]"
31.6 to 316 nM,≥ 50 mg/L,–,–,–,"COc1cc(-c2nccc(-c3cc4c([nH]3)C3(CCNCC3)CNC4=O)n2)ccc1O [1—20, 2′-(2-(4-hydroxy-3-methoxyphenyl)pyrimidin-4-yl)-5′,6′-dihydrospiro[piperidine-4,7′-pyrrolo[3,2-c]pyridin]-4′(1′H)-one]"
3.16 to 31.6 nM,20 to 50 mg/L,–,–,–,"O=C1NCC2(CCNCC2)c2[nH]c(-c3ccnc(-c4cnc5ccccc5c4)n3)cc21 [1—21, 2′-(2-(quinolin-3-yl)pyrimidin-4-yl)-5′,6′-dihydrospiro[piperidine-4,7′-pyrrolo[3,2-c]pyridin]-4′(1′H)-one]"
3.16 to 31.6 nM,≥ 50 mg/L,–,–,–,"CC(C)(C)c1ccc(-c2nccc(-c3cc4c([nH]3)C3(CCNCC3)CNC4=O)n2)cc1 [1—22, 2′-(2-(4-tert-butylphenyl)pyrimidin-4-yl)-5′,6′-dihydrospiro[piperidine-4,7′-pyrrolo[3,2-c]pyridin]-4′(1′H)-one]"
–,–,2 mg/L,–,–,O=C1NCCc2[nH]c(-c3ccnc(-c4cnc5ccccc5c4)c3)cc21 [16_1 Formula (XV)]
–,–,–,10 nM,–,O=C1NCCc2[nH]c(-c3ccnc(-c4cnc5ccccc5c4)n3)cc21 [16_2 Formula (XV)]
–,–,–,–,251 nM,O=C1NCC2(CCCC2)c2[nH]c(-c3ccnc(-c4cnc5ccccc5c4)n3)cc21 [17_3 Formula (XVI)]
–,–,–,–,316 nM,O=C1NCC2(CCCC2)c2[nH]c(-c3ccnc(-c4cccc(F)c4)n3)cc21 [17_4 Formula (XVI)]
